Test results from patent publication US20200283482A1, “BICYCLIC PEPTIDE LIGAND PRR-A CONJUGATES AND USES THEREOF” (BicycleRD Limited, priority 2017, published 2020).
Starred links: 1 amine or outer side, 2 acyl side, 3 side chain; linkers in the order of their positions; H or OH if unused. Positions of bridges follow the written chain, without caps; N, C: chain ends. Non-standard residues stand in square brackets, D forms with d. Residues, ends and D or L forms follow the SMILES beside them. *: point of attachment. X1 = CCOCc1nc2c(NC(=O)OCCSSC(C)CCC(=O)*)nc3ccccc3c2n1CC(C)(C)O; 1Nal = N[C@@H](Cc1cccc2ccccc12)C(=O)O; TBMB = c1c(C[*:1])cc(C[*:3])cc1C[*:2]; Tle = CC(C)(C)[C@H](N)C(=O)O; βAla = NCCC(=O)O; Sar = CNCC(=O)O

How the values were obtained:
human TLR7 = target: T1, human TLR7 (Homo sapiens, UniProt Q9NYK1); assay: Human TLR7 receptor activation, HEK293 reporter cell line; type: cell-based; conditions: HEK293 reporter cells, 16 hours
T1 construct: host or cells: HEK293 reporter cell line
T1 sequence (Q9NYK1 27-1049): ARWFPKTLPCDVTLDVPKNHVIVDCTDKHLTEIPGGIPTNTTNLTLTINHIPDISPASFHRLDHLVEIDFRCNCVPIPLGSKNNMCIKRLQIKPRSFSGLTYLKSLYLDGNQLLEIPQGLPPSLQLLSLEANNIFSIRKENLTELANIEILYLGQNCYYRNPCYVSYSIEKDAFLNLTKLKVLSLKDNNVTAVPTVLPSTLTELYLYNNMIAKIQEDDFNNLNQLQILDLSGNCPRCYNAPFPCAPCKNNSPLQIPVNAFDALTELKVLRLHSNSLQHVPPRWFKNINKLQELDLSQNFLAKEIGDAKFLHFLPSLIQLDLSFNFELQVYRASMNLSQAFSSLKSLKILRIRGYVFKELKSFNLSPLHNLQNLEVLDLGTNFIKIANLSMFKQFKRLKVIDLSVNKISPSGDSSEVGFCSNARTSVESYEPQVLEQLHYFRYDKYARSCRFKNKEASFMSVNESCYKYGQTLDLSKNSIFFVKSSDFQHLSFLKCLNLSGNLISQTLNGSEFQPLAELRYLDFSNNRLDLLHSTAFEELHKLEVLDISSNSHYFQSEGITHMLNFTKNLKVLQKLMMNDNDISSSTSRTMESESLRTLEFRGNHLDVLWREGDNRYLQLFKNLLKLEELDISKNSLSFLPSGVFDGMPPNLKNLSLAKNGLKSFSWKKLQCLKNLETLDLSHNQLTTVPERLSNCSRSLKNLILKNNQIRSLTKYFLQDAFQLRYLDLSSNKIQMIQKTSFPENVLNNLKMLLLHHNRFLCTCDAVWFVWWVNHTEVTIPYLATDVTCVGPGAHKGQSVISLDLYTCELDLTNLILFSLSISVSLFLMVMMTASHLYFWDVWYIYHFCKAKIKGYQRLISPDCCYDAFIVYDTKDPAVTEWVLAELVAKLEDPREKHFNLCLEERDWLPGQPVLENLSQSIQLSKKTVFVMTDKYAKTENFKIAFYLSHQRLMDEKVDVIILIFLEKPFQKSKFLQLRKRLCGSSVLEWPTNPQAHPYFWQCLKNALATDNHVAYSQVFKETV
Method: (§1) Compounds were tested for their activity to activate human TLR7 and TLR8 receptors using HEK293 reporter cell lines engineered to express respective receptors in accordance to manufacturer's instructions (InvivoGen). […] Incubation was for 16 hours at 37° C. and […]. Absorption at 655 nm was read on […]. Data was fitted using PRISM.

human TLR8 = target: T2, human TLR8 (Homo sapiens, UniProt Q9NR97); assay: Human TLR8 receptor activation, HEK293 reporter cell line; type: cell-based; conditions: HEK293 reporter cells, 16 hours
T2 construct: host or cells: HEK293 reporter cell line
T2 sequence (Q9NR97 27-1041): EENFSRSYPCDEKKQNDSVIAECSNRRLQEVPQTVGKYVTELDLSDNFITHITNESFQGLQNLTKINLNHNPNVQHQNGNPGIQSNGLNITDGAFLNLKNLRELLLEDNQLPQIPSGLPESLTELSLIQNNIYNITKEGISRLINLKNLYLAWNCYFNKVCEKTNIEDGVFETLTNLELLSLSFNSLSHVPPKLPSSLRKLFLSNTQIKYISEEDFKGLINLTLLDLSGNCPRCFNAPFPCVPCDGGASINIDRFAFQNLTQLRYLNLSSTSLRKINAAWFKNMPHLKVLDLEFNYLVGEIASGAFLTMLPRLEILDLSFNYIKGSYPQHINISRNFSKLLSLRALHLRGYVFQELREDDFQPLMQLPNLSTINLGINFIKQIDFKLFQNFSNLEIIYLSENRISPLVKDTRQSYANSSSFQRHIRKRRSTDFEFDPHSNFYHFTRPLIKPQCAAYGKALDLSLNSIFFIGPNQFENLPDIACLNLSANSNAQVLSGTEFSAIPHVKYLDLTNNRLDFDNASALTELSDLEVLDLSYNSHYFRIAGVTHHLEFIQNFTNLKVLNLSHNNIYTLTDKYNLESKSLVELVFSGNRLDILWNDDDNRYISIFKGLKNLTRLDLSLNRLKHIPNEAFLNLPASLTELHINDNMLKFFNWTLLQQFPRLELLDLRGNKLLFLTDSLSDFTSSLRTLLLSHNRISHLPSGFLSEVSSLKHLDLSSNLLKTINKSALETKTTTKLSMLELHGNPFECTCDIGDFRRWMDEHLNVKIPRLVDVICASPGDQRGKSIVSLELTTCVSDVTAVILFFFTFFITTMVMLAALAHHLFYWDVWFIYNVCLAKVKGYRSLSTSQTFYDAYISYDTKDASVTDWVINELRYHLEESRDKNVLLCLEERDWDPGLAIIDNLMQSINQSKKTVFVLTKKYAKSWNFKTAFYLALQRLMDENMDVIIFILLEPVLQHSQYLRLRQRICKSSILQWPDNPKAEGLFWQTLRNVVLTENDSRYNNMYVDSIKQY
Method: as §1

Question: Which “hTLR7 activation potency versus naked payload resiquimod” value (human TLR7) does the source give for CCOCc1nc2c(NC(=O)OCCSSC(C)CCC(=O)NCCC(=O)N(C)CC(=O)N(C)CC(=O)N(C)CC(=O)N(C)CC(=O)N(C)CC(=O)N(C)CC(=O)N(C)CC(=O)N(C)CC(=O)N(C)CC(=O)N(C)CC(=O)N[C@@H](C)C(=O)N[C@H]3CSCc4cc5cc(c4)CSC[C@H](NC(=O)[C@@H](C)NC(=O)[C@H](Cc4cccc6ccccc46)NC(=O)[C@H](CCC(=O)O)NC(=O)[C@H](CC(N)=O)NC(=O)[C@@H](C)NC3=O)C(=O)N[C@@H](CCC(=O)O)C(=O)N[C@@H](CC(=O)O)C(=O)N[C@@H](Cc3ccccc3)C(=O)N[C@@H](Cc3ccc(O)cc3)C(=O)N[C@@H](CC(=O)O)C(=O)N[C@@H](C(C)(C)C)C(=O)N[C@H](C(N)=O)CSC5)nc3ccccc3c2n1CC(C)(C)O (some centres unmarked) [I-8] ({X1-βAla}-[Sar][Sar][Sar][Sar][Sar][Sar][Sar][Sar][Sar][Sar]AC[dA]NE[1Nal][dA]CEDFYD[Tle]C-NH2; linker 12-18-25 via TBMB) here?
Answer: considerably reduced potency or inactivity

Question: And the “hTLR8 activation potency versus naked payload resiquimod” value (human TLR8)?
Answer: considerably reduced potency or inactivity
